# Values of other authors, collected in article PMC4138512 (Journal of computer-aided molecular design, 2014).
# System: BoNT/A
structure (smiles),measurement,value
O=C(/C=C/c1ccc(O)c(O)c1)O[C@H](C(=O)O)[C@H](OC(=O)/C=C/c1ccc(O)c(O)c1)C(=O)O [D-chicoric acid],"Inhibition in combination with 2,4-dichlorocinnamic hydroxamate",nonmutually exclusive inhibition
same,Type of inhibition of BoNT/A,partial inhibition
COC(=O)c1ccc(O)c2nc3c(C=O)c(O)cc(O)c3nc12 [lomofungin],"Inhibition in combination with 2,4-dichlorocinnamic hydroxamate and chicoric acid",synergistic inhibition
same,Type of inhibition of BoNT/A,non-competitive
